The numbers were not newly measured in patent US20100183720A1, “Hetero-assembled hydrogels” (The Board of Trustees of the Leland Stanford Junior …, priority 2008, published 2010), which cites them from elsewhere.

T2 sequence (P27986 3-79 limits assumed): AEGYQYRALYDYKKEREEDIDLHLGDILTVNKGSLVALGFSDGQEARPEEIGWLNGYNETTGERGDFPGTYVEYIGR

The first data set deals with model group I polyproline peptide. The conditions noted are these: monomeric units of WW domain bound to model group I polyproline peptide; read-out: apparent dissociation constant.
Take “Nedd4.3: wild-type WW domain sequence (Protein Data Bank 1I5H), monomeric unit (PLPPGWEERTHTDGRVFFINHNIKKTQWEDPRMQ; Natural WW domain also called Nedd4.3 Kanelis, V., Rotin D. & Forman-Kay, JD (2001) Solution structure of a Nedd4 WW domain-ENaC peptide complex, Nat Struct Biol 8 407-12.)”: the Kd was 11.2 ± 1.2 µM.

The target of a further data set is T1, Human YAP65 (Yes kinase-associated protein) WW Domain (Homo sapiens, UniProt P46937).
T1 construct: WW Domain
T1 sequence (P46937 171-204 limits assumed): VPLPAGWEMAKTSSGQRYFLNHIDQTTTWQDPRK
The following applies: read-out: Dissociation constant, Kd (Binding constant).
As to GTPPPPYTVG, the Kd was 52 ± 6 µM. SAPPPYTV: the Kd is 53 ± 17 µM.

Regarding SPPPAYTV, the Kd was 63 ± 17 µM. As for SPPPPFTV, the Kd is 118 ± 17 µM. SPPPYTV: the Kd is 47 ± 6 µM.

A further data set addresses T2, SH3 Domain (Homo sapiens, UniProt P27986).
T2 construct: SH3 Domain
The following applies: read-out: Dissociation constant, Kd.
For AKLPPRPSK, the Kd is 98 ± 0.2 µM. RALPPRPSK: the Kd was 9.7 ± 0.2 µM.

As for RKAPPRPSK, the Kd was 37 ± 1 µM.

In the case of RKLAPRPSK, the Kd was 140 ± 10 µM. As to RKLPARPSK, the Kd was 16.5 ± 0.1 µM.

RKLPPAPSK: the Kd is 29 ± 2 µM. Consider RKLPPRASK, for which the Kd was 53 ± 6 µM. With RKLPPRP, the Kd was 12.8 ± 0.6 µM. With RKLPPRPSK, the Kd was 9.1 ± 0.6 µM. Take RPLPPRPSK: the Kd was 9.1 ± 0.6 µM.

For another data set, the target named is T3, SH3 Domain PI3K (1 SH3 and 2 SH2) (Homo sapiens, UniProt P27986).
T3 construct: SH3 Domain
T3 sequence (P27986 3-79 limits assumed): as the sequence (P27986 3-79 limits assumed) above
The following applies: read-out: Dissociation constant, Kd.
As for LNKPPLPKR, the Kd was 13 µM. Consider RALPPLPRY, for which the Kd was 17 µM. Take RKLPPRPAF: the Kd was 11 µM.

As for RKLPPRPSK, the Kd was 9.1 µM. For RYLPPRPMY, the Kd was 13 µM.

Another data set addresses T4, SH3 Domain cSRC (1 SH3 and 1 SH2) (Gallus gallus, UniProt P00523).
T4 construct: SH3 Domain
The conditions noted are these: read-out: Dissociation constant, Kd.
For PYHPPLPRR, the Kd is 13 µM. As for RELPPIPVF, the Kd is 9.6 µM. With RELPPLPRF, the Kd is 7.8 µM. RKLPPRPSK: the Kd is 73 µM. With RPLPPTPKY, the Kd is 12 µM.

The target of a further data set is T5, Human Tsg101 UEV domain (Homo sapiens, UniProt Q99816).
T5 construct: Human Tsg101 UEV domain
T5 sequence (Q99816 2-145 limits assumed): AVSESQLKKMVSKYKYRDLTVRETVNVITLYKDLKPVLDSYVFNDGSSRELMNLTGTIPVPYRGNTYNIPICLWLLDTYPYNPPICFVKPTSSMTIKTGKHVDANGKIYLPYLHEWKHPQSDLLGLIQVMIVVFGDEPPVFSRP
The following applies: read-out: Dissociation constant, Kd (Binding constant).
For “HIV-1 p6 protein: binding partner of Human Tsg101 UEV domain (LQSRPEPTAPPEESFRSGVETTTPPQKQEPIDKELYPLTSLRSLFGNDPSSQ; p6-gag; UniProt P04591 449-500, looked up)”, the Kd was 27 ± 5 µM.

For another data set, the target named is T6, PABC Domain (Homo sapiens, UniProt P11940).
T6 construct: PABC Domain
T6 sequence (P11940 542-619 limits assumed): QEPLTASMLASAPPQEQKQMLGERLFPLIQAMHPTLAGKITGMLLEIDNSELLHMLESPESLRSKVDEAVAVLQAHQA
The following applies: SPR; read-out: Dissociation constant, Kd (SPR Kd).
Regarding AFSRQLNVNAKPFVPNVHA, the Kd is 3.9 µM. For the substance AFSRQLNVNAKPFVPNVHAAEFVPSFLR, the Kd was 1.3 µM. For AKPFVPNVHAAEFVPSFLR, the Kd was 3.1 µM.

For LVVKSNLNPNAKEF, the Kd is 260 µM. As for LVVKSNLPNAKEFVP, the Kd is 3 µM.

As to SNLNPNAKEFVPGVKYG, the Kd is 0.19 µM.

For the substance VLMSKLSVNAPEFYPSGYSSSY, the Kd is 2.3 µM. With VVKSNLNPNAKEFVPGVKYGNI, the Kd is 0.16 µM.
